This is an account of results in patent US6110897A, “Antiinflammatory cell adhesion inhibitors” (Glycorex AB, priority 1997, dated 2000).

Read-outs that look alike come from different tables or passages of the source.

Experiment [1] concerns E-selectin-Ig. The note with it: cited from earlier work.
In experiment [2] the target is T1, P-selectin-IgG fusion protein (Homo sapiens, UniProt P16109).
T1 construct: the lectin-like domain, the EGF repeat domain and six (E-selectin) and two (P-selectin) of the complement regulatory-like domains; made in house; host or cells: COS cells (DEAE/dextran plasmid transfection; culture supernatant; genetic constructs from B. Seed, Massachusetts General Hospital)
T1 sequence (P16109 with tags, fused parts or gaps limits assumed): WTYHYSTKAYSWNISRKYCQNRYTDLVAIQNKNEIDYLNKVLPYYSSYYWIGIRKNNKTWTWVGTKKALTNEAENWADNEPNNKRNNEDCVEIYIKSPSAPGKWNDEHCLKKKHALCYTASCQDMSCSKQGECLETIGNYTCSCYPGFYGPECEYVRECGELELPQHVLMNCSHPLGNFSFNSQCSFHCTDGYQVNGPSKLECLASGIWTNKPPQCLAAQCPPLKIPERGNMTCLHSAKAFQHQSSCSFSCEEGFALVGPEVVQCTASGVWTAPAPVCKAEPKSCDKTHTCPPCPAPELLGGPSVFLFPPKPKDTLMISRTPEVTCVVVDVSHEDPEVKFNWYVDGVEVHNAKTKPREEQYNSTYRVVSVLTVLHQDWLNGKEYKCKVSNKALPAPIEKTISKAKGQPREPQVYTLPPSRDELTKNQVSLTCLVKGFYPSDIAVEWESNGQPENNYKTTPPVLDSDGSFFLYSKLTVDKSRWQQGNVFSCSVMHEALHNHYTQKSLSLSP
The experiment can be described thus: Inhibition of HL60 cell adhesion to recombinant P-selectin-IgG fusion protein. The experiment is classed as cell-based. The note with it: for IC50: concentration to block adhesion of 50% of HL60 cells compared with negative control. Here is the method: (§1) These recombinant proteins contain the signal sequence, the lectin-like domain, the EGF (epidermal growth factor) repeat domain and six (E-selectin) and two (P-selectin) of the CR-like (complement regulatory) domains. […] Adhesion of labelled HL60 tumor cells was quantitatively measured in a cytofluoro-meter. The specific cell binding in the presence of inhibitors (I) was calculated compared with nonspecific binding to the CD4-IgG fusion protein. […] Genetic constructs for expression of extracellular portions of the human selectins E and P, joined to human immunoglobulin heavy chain hinge, CH2 and CH3 regions were obtained from B. Seed, Massachusetts General Hospital, Boston, U.S.A. […] CD4-IgG served as a negative control. Recombinant proteins were expressed as soluble proteins after DEAE/dextran facilitated plasmid DNA trans-fection into COS cells according to standard procedures. […] After washing with PBS, plates were blocked for 0.5 h with 150 μl/well of 1% BSA in PBS. […] After one PBS wash, 40 μl/well binding buffer (50 mM Hepes, pH 7.5, 100 mM NaCl, 100 μM MgCl2. 100 μM MnCl2, 100 μM CaCl2, 1 mg/ml BSA) were added together with test compounds or antibodies (see below). Parallel to the preparation of the plates, HL60 cells, grown in DMEM medium with 20% FCS, were washed two times with PBS before incubation for 20 min in Fc-receptor blocking buffer at RT. […] The amount of bound cells was quantitated in a cytofluorometer (CytoFluor 2300, Millipore, Bedford, U.S.A.). Specific cell binding was calculated by subtraction of the signals in wells coated with CD4-IgG (nonspecific binding) from the signals in wells coated with selectin-IgG. […] IC50 values were determined according to the four parameter logistics model. Each IC50 determination was repeated on another day at least once.

For experiment [3], the system named is E-selectin-IgG fusion protein. In words: Inhibition of HL60 cell adhesion to recombinant E-selectin-IgG fusion protein. The experiment is classed as cell-based, human. Here is the method:
as §1

Experiment [4] relates to E- and P-selectins. The experiment can be described thus: Selectin cell adhesion assays, E- and P-selectin taken together (statements in words). The experiment is classed as cell-based, human. The note with it: removal of the acetamido or acetyl group, compared with II-1. The source says: Primary assays for investigation of the action of compounds (I) on cell adhesion to recombinant soluble selectin fusion proteins:
The preparation of soluble E- and P-selectin-IgG fusion proteins, composed of the extracellular portions of human selectins E and P and the human immunoglobulin (IgG) heavy chain hinge, CH2 and CH3 regions, has been described in Cell 1991, 67, 35. These recombinant proteins contain the signal sequence, the lectin-like domain, the EGF (epidermal growth factor) repeat domain and six (E-selectin) and two (P-selectin) of the CR-like (complement regulatory) domains. […] Adhesion of labelled HL60 tumor cells was quantitatively measured in a cytofluoro-meter. The specific cell binding in the presence of inhibitors (I) was calculated compared with nonspecific binding to the CD4-IgG fusion protein.
The activity of compounds (I), (II) and (III) was measured in adhesion assays as the inhibition of the binding of promyelocytic leukemia HL60 cells (ATCC CRL 1964) to recombinant solid phase bound selectin-fusion proteins. […] Recombinant proteins were expressed as soluble proteins after DEAE/dextran facilitated plasmid DNA trans-fection into COS cells according to standard procedures. […] The amount of bound cells was quantitated in a cytofluorometer (CytoFluor 2300, Millipore, Bedford, U.S.A.). […]

Where [5] appears, read: concentration to block adhesion of 50% of HL60 cells compared with negative control; read-out: E-selectin IC50.

With `CC(=O)NC1C(O)CC(OC2C(O)C(CO)OC(OC3C(CO)OC(O)C(N)C3OC3OC(C)C(O)C(O)C3O)C2O)(C(=O)O)OC1C(O)C(O)CO` (centres unmarked) [sLe^X (GlcNH2)], in experiment [1] (cell-free ELISA, E-selectin-Ig competitive binding), the “enhanced inhibitory potency compared to sLe^X (fold)” value is 5 fold. The IC50 in experiment [1] (cell-free system, read-out: IC50, E-selectin-Ig competitive binding) was 77 µM.

Take `CC1OC(OC2C(N)C(OCCCCCCN)OC(CO)C2OC2OC(CO)C(O)C(OC3(C(=O)O)CC(O)C(N)C(C(O)C(O)CO)O3)C2O)C(O)C(O)C1O` [Compound I-1, 2-Amino-4-O-[3-O-[5-amino-3,5-dideoxy-D-glycero-α-D-galactononulopyranosyl]-β-D-galactopyranosyl]-1-[6-aminohexyl]-2-deoxy-3-O-[α-L-fucopyranosyl]-β-D-glycopyranose]: the results for the IC50 in experiment [2] and in experiment [3] (read-out: E-selectin IC50; concentration to block adhesion of 50% of HL60 cells compared with negative control) were 160 µM and 270 µM, respectively. In addition, the “enhancement of binding affinity to P-selectin (factor)” value in experiment [2] (fully deacetylated I-1 compared with II-1) amounted to 12.5. Moreover, the “improvement of the E-selectin IC50 over II-1” value in experiment [3] (I-1 over reference compound II-1) is “significant improvement”.

Regarding `CC(=O)NC1C(OCCCCCCN)OC(CO)C(OC2OC(CO)C(O)C(OC3(C(=O)O)CC(O)C(N)C(C(O)C(O)CO)O3)C2O)C1OC1OC(C)C(O)C(O)C1O` (centres unmarked) [III-2], in experiment [4], the “inhibitory potency relative to II-1” value is reported as “only slightly improved”. Further, the 50% inhibitory concentration (IC50) was 1000 µM in experiment [2] and 900 µM in experiment [3] (setting [5]).

Regarding `CC(=O)NC1C(O)CC(OC2C(O)C(CO)OC(OC3C(CO)OC(OCCCCCCN)C(NC(C)=O)C3OC3OC(C)C(O)C(O)C3O)C2O)(C(=O)O)OC1C(O)C(O)CO` (centres unmarked) [II-1], the IC50 is 2000 µM in experiment [2] and 1000 µM in experiment [3] (setting [5]).

`CC(=O)NC1C(OCCCCCCN)OC(CO)C(OC2OC(CO)C(O)C(OC3(C(=O)O)CC(O)CC(C(O)C(O)CO)O3)C2O)C1OC1OC(C)C(O)C(O)C1O` (centres unmarked) [III-1]: in experiment [4], the “inhibitory potency relative to II-1” value is on record as “only slightly improved”. For the same compound, the 50% inhibitory concentration (IC50) in experiment [2] and in experiment [3] (setting [5]) was 700 µM in each case.

In general, IC50 refers to the concentration needed to halve the response being measured.
